Experimental data: paper PMC3382171 (PLoS ONE, 2012)

Assays:
Test in all cases: biochemical
PLK1 = PLK1 (Homo sapiens, UniProt P53350); parameters: University of Dundee kinase panel, per cent inhibition of phosphorylation at ATP Km
Description: The METi and RAFi were screened against kinase panels (SelectScreen, Invitrogen; University of Dundee, Division of Signal Transduction Therapy, UK; Upstate Biotechnology/Millipore, Billerica, MA). In these selectivity assays the concentration of ATP was set to the Km value of ATP for each kinase tested to allow for a relative potency comparison between the various kinases. The compounds were tested at 1 µM final concentration. […] (A) Kinase selectivity screen (KSS) performed at Upstate Biotechnology. […] (B) KSS performed at University of Dundee (Division of Signal Transduction Therapy). […] (PDF) Click here for additional data file. Supplementary file pone.0039653.s002.pdf: Figure S2 Kinase Selectivity Screen of RAFi. (A) Kinase selectivity screen (KSS) performed at University of Dundee (Division of Signal Transduction Therapy). Values in % inhibition of phosphorylation given 1 µM of RAFi compared to control. (B) KSS performed at Invitrogen (Selectscreen Service) compared to control. Values in % inhibition of phosphorylation given 1 µM of RAFi. (C) Cell based dose response kinase inhibition of indicated kinases by RAFi. (PDF) Click here for additional data file.

GSK3alpha = biological target: T1, GSK3alpha (Homo sapiens, UniProt P49840); details: read-out: Upstate KSS % inhibition at 1uM
T1 construct: gene GSK3A
Description: (§1) In these selectivity assays the concentration of ATP was set to the Km value of ATP for each kinase tested to allow for a relative potency comparison between the various kinases. The compounds were tested at 1 µM final concentration. […] (A) Kinase selectivity screen (KSS) performed at Upstate Biotechnology. […] (B) KSS performed at University of Dundee (Division of Signal Transduction Therapy). […] (PDF) Click here for additional data file.

MSK1 = biological target: T2, MSK1 (Homo sapiens, UniProt O75582); details: read-out: Upstate KSS % inhibition at 1uM
T2 construct: gene RPS6KA5
Description: as §1

PDGFRalpha = biological target: T3, PDGFRalpha (Homo sapiens, UniProt P16234); details: read-out: Upstate KSS % inhibition at 1uM
T3 construct: gene PDGFRA
Description: as §1

SAPK4 = biological target: T4, SAPK4 (Homo sapiens, UniProt O15264); details: read-out: Upstate KSS % inhibition at 1uM
T4 construct: gene MAPK13
Description: as §1

KDR = KDR (Homo sapiens, UniProt P35968); details: read-out: Upstate KSS % inhibition at 1uM
Description: as §1

PKCbeta = biological target: T5, PKCbeta (Homo sapiens, UniProt P05771); details: read-out: Upstate KSS % inhibition at 1uM
T5 construct: gene PRKCB
T5 sequence (P05771 whole entry): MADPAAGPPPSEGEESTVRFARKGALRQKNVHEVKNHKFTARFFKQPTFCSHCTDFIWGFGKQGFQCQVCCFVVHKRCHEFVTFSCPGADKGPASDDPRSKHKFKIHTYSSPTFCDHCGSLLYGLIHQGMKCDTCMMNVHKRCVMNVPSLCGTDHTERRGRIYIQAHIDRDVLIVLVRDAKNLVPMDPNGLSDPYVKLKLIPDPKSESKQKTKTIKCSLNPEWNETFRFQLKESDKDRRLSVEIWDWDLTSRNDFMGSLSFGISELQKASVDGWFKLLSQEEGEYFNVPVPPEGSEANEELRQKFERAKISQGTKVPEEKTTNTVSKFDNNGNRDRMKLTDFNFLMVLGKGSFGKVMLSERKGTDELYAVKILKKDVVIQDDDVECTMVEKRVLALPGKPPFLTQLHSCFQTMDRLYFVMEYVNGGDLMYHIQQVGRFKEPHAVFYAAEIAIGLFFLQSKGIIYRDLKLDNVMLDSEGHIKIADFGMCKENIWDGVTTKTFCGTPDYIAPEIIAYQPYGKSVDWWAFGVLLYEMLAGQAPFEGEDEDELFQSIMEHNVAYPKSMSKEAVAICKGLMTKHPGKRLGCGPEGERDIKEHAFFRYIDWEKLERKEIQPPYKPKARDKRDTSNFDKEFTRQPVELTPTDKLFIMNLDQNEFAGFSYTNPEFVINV
Description: as §1

Rsk3 = biological target: T6, Rsk3 (Homo sapiens, UniProt Q15349); details: read-out: Upstate KSS % inhibition at 1uM
T6 construct: gene RPS6KA2
Description: as §1

JNK2alpha2 = biological target: T7, JNK2alpha2 (Homo sapiens, UniProt P45984); details: read-out: Upstate KSS % inhibition at 1uM
T7 construct: gene MAPK9; isoform alpha2
T7 sequence (P45984 whole entry, canonical isoform): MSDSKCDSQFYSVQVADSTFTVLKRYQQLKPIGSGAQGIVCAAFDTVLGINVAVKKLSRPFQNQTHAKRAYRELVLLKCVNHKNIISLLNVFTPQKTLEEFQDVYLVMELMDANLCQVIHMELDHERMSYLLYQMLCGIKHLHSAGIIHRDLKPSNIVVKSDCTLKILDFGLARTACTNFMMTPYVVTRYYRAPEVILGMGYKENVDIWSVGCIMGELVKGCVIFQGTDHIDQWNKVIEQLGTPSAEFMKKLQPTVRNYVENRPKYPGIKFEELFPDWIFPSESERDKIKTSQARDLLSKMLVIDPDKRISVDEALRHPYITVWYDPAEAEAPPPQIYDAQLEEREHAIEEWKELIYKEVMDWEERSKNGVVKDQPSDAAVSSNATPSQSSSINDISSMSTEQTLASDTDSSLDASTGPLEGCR
Description: as §1

RET = RET (Homo sapiens, UniProt P07949); details: read-out: Upstate KSS % inhibition at 1uM
Description: as §1

RSK2 = biological target: T8, RSK2 (Homo sapiens, UniProt P51812); details: read-out: Upstate KSS % inhibition at 1uM
T8 construct: gene RPS6KA3
Description: as §1

PASK = PASK (Homo sapiens, UniProt Q96RG2); details: read-out: Upstate KSS % inhibition at 1uM
Description: as §1

ROCK-11 = biological target: T9, ROCK-11 (Homo sapiens, UniProt O75116); details: read-out: Upstate KSS % inhibition at 1uM
T9 construct: gene ROCK2
Description: as §1

LIMK1 = LIMK1 (Homo sapiens, UniProt P53667); details: read-out: Upstate KSS % inhibition at 1uM
Description: as §1

LCK = LCK (Homo sapiens, UniProt P06239); details: read-out: Upstate KSS % inhibition at 1uM
Description: as §1

PRK2 = biological target: T10, PRK2 (Homo sapiens, UniProt Q16513); details: read-out: Upstate KSS % inhibition at 1uM
T10 construct: gene PKN2
Description: as §1

ASK1 = biological target: T11, ASK1 (Homo sapiens, UniProt Q99683); details: read-out: Upstate KSS % inhibition at 1uM
T11 construct: gene MAP3K5
Description: as §1

CDK3/cyclinE = CDK3/cyclinE (Homo sapiens, UniProt Q00526); details: read-out: Upstate KSS % inhibition at 1uM
Chain of CDK3/cyclinE (Q00526 whole entry): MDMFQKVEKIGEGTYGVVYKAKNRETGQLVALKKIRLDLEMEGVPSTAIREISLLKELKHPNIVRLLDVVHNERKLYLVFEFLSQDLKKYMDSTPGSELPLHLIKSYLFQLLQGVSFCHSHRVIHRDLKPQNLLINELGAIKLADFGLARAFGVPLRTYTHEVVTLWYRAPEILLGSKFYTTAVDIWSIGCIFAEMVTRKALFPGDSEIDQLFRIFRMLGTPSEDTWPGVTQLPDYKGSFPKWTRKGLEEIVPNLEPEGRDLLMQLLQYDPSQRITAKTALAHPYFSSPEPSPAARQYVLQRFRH
Chain of CDK3/cyclinE (P24864 whole entry partner): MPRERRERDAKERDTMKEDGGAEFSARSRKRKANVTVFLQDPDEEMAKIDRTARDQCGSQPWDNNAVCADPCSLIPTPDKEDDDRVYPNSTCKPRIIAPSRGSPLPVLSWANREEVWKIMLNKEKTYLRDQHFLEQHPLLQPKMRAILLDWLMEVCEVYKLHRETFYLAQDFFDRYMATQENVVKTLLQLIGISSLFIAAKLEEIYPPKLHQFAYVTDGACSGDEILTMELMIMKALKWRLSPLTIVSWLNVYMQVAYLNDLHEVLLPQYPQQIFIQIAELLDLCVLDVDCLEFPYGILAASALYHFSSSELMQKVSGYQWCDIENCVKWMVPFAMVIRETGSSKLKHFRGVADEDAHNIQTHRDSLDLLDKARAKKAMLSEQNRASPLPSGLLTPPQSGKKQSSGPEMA
Description: as §1

MRCKalpha = biological target: T12, MRCKalpha (Homo sapiens, UniProt Q5VT25); details: read-out: Upstate KSS % inhibition at 1uM
T12 construct: gene CDC42BPA
T12 sequence (Q5VT25 whole entry): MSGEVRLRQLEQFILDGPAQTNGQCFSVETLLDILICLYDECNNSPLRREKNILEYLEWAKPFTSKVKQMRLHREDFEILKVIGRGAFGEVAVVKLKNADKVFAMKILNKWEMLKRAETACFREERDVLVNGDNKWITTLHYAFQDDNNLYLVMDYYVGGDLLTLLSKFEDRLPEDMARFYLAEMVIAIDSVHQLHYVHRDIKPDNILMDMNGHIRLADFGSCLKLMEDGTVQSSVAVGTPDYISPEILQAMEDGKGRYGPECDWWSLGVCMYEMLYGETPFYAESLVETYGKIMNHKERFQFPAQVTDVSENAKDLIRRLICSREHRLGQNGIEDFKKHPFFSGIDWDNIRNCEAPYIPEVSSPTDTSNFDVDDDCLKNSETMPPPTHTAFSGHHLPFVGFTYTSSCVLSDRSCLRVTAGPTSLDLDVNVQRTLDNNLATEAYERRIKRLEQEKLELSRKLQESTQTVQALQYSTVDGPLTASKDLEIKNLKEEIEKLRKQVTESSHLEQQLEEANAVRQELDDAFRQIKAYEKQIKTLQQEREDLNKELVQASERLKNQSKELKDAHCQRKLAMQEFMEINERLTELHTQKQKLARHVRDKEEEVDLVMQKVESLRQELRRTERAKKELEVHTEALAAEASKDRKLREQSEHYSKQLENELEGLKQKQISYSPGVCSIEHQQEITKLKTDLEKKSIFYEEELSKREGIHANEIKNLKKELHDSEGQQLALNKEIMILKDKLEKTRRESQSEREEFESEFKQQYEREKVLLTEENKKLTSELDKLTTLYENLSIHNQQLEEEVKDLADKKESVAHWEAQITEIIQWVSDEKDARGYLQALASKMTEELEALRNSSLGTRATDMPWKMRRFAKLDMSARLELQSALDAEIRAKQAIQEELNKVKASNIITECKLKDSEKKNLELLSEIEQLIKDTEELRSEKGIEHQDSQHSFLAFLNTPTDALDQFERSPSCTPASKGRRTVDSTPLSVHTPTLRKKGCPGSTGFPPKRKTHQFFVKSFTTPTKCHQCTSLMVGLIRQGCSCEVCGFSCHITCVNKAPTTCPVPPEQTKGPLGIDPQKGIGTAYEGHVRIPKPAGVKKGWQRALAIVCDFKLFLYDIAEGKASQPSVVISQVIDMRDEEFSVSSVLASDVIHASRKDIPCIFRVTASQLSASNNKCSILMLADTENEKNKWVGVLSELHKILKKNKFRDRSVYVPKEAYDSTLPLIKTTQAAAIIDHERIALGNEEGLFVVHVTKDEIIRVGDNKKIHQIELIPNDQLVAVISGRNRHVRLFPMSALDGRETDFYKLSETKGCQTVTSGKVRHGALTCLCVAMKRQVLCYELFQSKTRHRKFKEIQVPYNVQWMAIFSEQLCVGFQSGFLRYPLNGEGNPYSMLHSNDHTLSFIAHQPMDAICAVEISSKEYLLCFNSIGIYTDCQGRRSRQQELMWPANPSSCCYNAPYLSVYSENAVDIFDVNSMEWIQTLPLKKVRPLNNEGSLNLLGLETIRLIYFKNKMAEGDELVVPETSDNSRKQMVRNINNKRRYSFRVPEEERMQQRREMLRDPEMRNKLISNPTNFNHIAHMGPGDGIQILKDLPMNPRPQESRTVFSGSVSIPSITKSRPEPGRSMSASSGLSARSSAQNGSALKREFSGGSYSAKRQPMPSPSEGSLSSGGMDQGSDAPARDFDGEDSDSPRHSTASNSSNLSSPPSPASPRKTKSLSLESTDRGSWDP
Description: as §1

PKCmu = biological target: T13, PKCmu (Homo sapiens, UniProt Q15139); details: read-out: Upstate KSS % inhibition at 1uM
T13 construct: gene PRKD1
Description: as §1

PKCtheta = biological target: T14, PKCtheta (Homo sapiens, UniProt Q04759); details: read-out: Upstate KSS % inhibition at 1uM
T14 construct: gene PRKCQ
T14 sequence (Q04759 whole entry): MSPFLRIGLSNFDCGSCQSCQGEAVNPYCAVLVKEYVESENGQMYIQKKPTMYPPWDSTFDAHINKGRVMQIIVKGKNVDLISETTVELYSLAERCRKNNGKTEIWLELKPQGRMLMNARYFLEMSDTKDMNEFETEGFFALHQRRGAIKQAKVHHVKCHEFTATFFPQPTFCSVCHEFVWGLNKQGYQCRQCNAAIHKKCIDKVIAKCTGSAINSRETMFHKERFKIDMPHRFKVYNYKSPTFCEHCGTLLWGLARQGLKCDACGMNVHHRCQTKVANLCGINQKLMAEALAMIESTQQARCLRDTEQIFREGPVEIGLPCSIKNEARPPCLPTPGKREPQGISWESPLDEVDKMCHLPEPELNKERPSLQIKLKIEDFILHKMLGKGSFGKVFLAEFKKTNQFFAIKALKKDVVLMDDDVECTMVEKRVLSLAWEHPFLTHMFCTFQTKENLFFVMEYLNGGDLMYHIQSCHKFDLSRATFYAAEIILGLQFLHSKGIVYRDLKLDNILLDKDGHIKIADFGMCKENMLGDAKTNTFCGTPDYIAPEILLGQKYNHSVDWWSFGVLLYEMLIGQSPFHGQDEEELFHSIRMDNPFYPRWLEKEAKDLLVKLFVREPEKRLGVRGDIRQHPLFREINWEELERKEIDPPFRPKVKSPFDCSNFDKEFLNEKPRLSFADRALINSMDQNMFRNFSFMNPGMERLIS
Description: as §1

Chain of PLK1 (P53350 whole entry): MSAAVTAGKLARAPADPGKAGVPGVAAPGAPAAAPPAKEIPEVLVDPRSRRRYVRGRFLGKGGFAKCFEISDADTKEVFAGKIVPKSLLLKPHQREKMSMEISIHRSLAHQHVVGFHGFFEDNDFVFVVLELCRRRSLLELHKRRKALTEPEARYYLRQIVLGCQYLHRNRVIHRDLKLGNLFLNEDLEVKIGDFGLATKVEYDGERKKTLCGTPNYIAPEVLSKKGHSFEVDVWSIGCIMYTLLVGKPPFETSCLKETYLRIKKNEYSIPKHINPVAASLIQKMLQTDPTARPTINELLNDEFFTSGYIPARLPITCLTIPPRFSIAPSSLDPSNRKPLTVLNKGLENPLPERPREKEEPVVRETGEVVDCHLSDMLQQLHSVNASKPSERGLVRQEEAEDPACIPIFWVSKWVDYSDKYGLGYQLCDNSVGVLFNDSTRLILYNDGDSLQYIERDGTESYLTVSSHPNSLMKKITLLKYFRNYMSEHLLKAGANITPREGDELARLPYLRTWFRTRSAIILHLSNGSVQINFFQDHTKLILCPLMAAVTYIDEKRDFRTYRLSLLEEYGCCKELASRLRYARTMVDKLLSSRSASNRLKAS

OCCn1cc(-c2cnc3nnn(Cc4ccc5ncccc5c4)c3n2)cn1 [METi, PF-04217903]
Dundee KSS % inhibition at 1uM (PLK1; inhibitor, Dundee KSS % inhibition at 1uM, 1 µM): 10.1%
inhibition at 1 µM (PLK1; read-out: Dundee KSS % inhibition at 1uM): 13.6%
inhibition at 1 µM (GSK3alpha): -7%
inhibition at 1 µM (MSK1): -5%
inhibition at 1 µM (PDGFRalpha): -28%
inhibition at 1 µM (SAPK4): -18%
inhibition at 1 µM (KDR): -9%
inhibition at 1 µM (PKCbeta): 0%
inhibition at 1 µM (Rsk3): -3%
inhibition at 1 µM (JNK2alpha2): -2%
inhibition at 1 µM (RET): -7%
inhibition at 1 µM (RSK2): -22%
inhibition at 1 µM (PASK): -13%
inhibition at 1 µM (ROCK-11): 0%
inhibition at 1 µM (LIMK1): -7%
inhibition at 1 µM (LCK): -8%
inhibition at 1 µM (PRK2): -11%
inhibition at 1 µM (ASK1): -11%
inhibition at 1 µM (CDK3/cyclinE): 5%
inhibition at 1 µM (MRCKalpha): 5%
inhibition at 1 µM (PKCmu): 5%
inhibition at 1 µM (PKCtheta): -10%
